Values quoted from earlier work in patent US11000475B2, “Ophthalmic solution of difluprednate” (Sun Pharma Advanced Research Company Limited, priority 2015, dated 2021).

solubility in aqueous vehicle: practically insoluble
Structure (SMILES): CCCC(=O)O[C@]1(C(=O)COC(C)=O)CCC2[C@@H]3CC(F)C4=CC(=O)C=C[C@]4(C)C3(F)[C@@H](O)C[C@@]21C (stereo partly shown) [Difluprednate]
